Measured values published in paper PMC6514962, “The Impact of O-Glycosylation on Cyanidin Interaction with RBCs and HMEC-1 Cells—Structure–Activity Relationships” (International Journal of Molecular Sciences, 2019).

Key:
HMEC-1 cells [1] = test: AAPH-stimulated intracellular ROS generation, H2DCF-DA assay; format: cell-based, human; conditions: for inhibitory activity on AAPH-induced intracellular ROS: HMEC-1, throughout the used range of concentrations (50-100 µM); for intracellular ROS level in comparison with control AAPH-oxidized cells: HMEC-1 pretreated 24 h with 50 to 75 µM, then AAPH 24 h
Protocol: (§1) The impact of investigated compounds on the level of intracellular reactive oxygen species and their ability to inhibit AAPH-stimulated intracellular ROS generation were assessed using a H2DCF-DA probe. Non-fluorescent H2DCF-DA is hydrolyzed intracellularly to form 2′,7′-dichlorodihydrofluorescein, which is oxidized by reactive oxygen species to the fluorescent 2′,7′-dichlorofluorescein. ROS production was estimated in HMEC-1 cells seeded on 96-well plates (5 × 10^3/well) and cultured for 12 to 24 h. After that time, the compounds were added at appropriate concentrations. The incubation was continued for another 24 h and 48 h at 37 °C under 5% CO2. In the case of AAPH-simulated ROS generation, the cells were incubated with extracts for 24 h. After incubation, the AAPH dissolved in culture medium was added to each well at the final concentration of 7.5 mM and incubated for the next 24 h. After that time, the cell monolayers were rinsed with HBSS containing 1% albumin and 5 µM of the fluorescence probe, 2′,7′-dichlorodihydrofluorescein diacetate (H2DCF-DA), was added. Immediately and after 0.5 h, 1 h, and 2 h incubation in the dark in standard conditions, the fluorescence was measured at λex = 485 nm and λem = 538 nm.
(§2) In the next step, DNA content was determined. For this purpose, after measurements, the cells were frozen at −70 °C. Next, the cells were thawed and re-frozen after the addition of […] of distilled water/well. Then, the cells were thawed again. After that, 5 µM of RNase was added to each well and incubated for 30 min in the dark at 37 °C. Next, 50 µL of 2.5 µM propidium iodide was added to the cells and incubated for 5 min in the same conditions. The fluorescence intensity of PI was measured at λex = 355 nm and λem = 620 nm. The rate of ROS generation was calculated according to the formula: (1) Rate of ROS=IFe1/IFe2/IFc1/IFc2⋅100% where IFe1 and IFe2 are fluorescence intensities of H2DCF-DA and PI in compound-modified or compound-modified and AAPH-oxidized cells, and IFc1 and IFc2 are fluorescence intensities of H2DCF-DA and PI in control or AAPH-oxidized control cells.

[2] = viability of HMEC-1 cells, XTT and Hoechst 33342 assays; format: cell-based, human; conditions: human, HMEC-1 cells, HMEC-1, 100 µM, % of control, read-out: cell viability (XTT and Hoechst assay)
Protocol: (§3) The effect of compounds on the viability of HMEC-1 cells was assessed by XTT (2,3-bis-(2-methoxy-4-nitro-5-sulfophenyl)-2H-tetrazolium-5-carboxanilide) and Hoechst 33342 assays. Briefly, 5 × 10^3 cells in 100 µL of the appropriate growth medium were plated in 96-well flat bottom clear microplates and cultured for 24 h at 37 °C in a humidified 5% CO2 incubator to ensure their logarithmic growth. […] A corresponding volume of 0.5% ethanol was added to the control wells. In parallel experiments, some of the cells were additionally incubated with doxorubicin in a concentration of 0.5 µM (a cytotoxic compound usually used as an anticancer drug). After incubation, the medium in the wells was aspirated, the cell monolayers were rinsed twice with pre-warmed (37 °C) PBS, and the cells were allowed to grow for an additional 48 h. After incubation, during the XTT assay, medium was removed by aspiration and 50 µL of XTT/PMS solution (10 µL of 10 mM PMS + 4 mL of 4 mg/mL XTT solution) was added to cells. Cells were incubated in the dark for 2 h (37 °C, 5% CO2). After incubation, the absorbance of the samples was read at 450 nm and 690 nm using an Epoch Microplate Spectrophotometer, BioTek Instruments, Inc., Winooski, Vermont, USA. The fraction of surviving treated cells was presented as a percentage of viable control (untreated) cells taken as 100%. In the Hoechst test, after incubation of cells with cyanidin and its glycosides, the medium was removed and the cells were washed twice with HBSS buffer containing 1% bovine serum albumin and frozen at −70 °C. Next, the cells were thawed at room temperature (RT) and re-frozen after the addition of […] of distilled water. After thawing the plates at room temperature, 100 µL of HVAB solution (0.5% Hoechst in TNE solution containing 2 M NaCl, 1 mM EDTA, 10 mM Tris-HCl, pH 7.4) were added to each well. Next, cells were incubated for 15 min in the dark at 37 °C, mixed, and the fluorescence intensity of the probe was measured at 355 and 460 nm for excitation and emission, respectively (Fluoroskan Ascent FL, Thermo Scientific, Waltham, MA, USA). Cell viability was calculated as the ratio of the fluorescence intensity of the Hoechst 33342 probe for compound-modified to -unmodified cells and expressed as a percentage.

HMEC-1 cells [3] = test: as above; format: cell-based, human; conditions: 48 h; for viability of endothelial cells compared with the control: HMEC-1, 100 µM, p < 0.01, both methods; for cytotoxicity: HMEC-1, 10-100 µM
Protocol: as §3

HMEC-1 cells [4] = test: intracellular ROS generation in non-oxidized cells, H2DCF-DA assay; format: cell-based, human
Protocol: as §1, §2

erythrocytes (RBCs) [5] = test: protection of erythrocytes against AAPH-induced hemolysis; format: cell-based, pig; conditions: for level of RBCs' protection relative to CR and CDG: compared with CR and CDG
Protocol: Upon removal from plasma, the erythrocytes (RBCs) were washed four times in phosphate solution (pH 7.4) and then incubated in the same solution, but containing appropriate amounts of the compounds studied. The modification was conducted at 37 °C for 1 h, each 1 mL sample containing an RBC suspension of 1.2% hematocrit and 1 to 100 µM of compounds, stirred continuously. After the modification, 2 mL of phosphate buffer were added and samples were centrifuged, and the supernatant assayed for hemoglobin content using a spectrophotometer (Specord 40, Analytik Jena) at the 540 nm wavelength. To test the effect of compounds on hemolysis inducted by AAPH, RBCs were pre-incubated with varying concentrations of compounds at 37 °C for 1 h. Hemolysis of RBCs was carried out by mixing 3% suspension of RBCs (unmodified or modified by 2 to 20 µM of the compounds) in phosphate buffer with AAPH solution (final concentration 120 mM). This reaction mixture was incubated for 3 h at 37 °C. After incubation, samples were centrifuged for 15 min (2000× g, RT). The extent of hemolysis was determined spectrophotometrically by measuring the absorbance of the supernatant at 540 nm. Hemoglobin concentration in the supernatant, expressed as a percentage of the hemoglobin concentration in the supernatant of totally hemolyzed cells, was assumed as the measure of the extent of hemolysis.

erythrocytes (RBCs) [6] = test: SEM assay of the shapes of erythrocytes; format: cell-based, pig; conditions: 100 µM, 1 h
Protocol: The effect of compounds on the shape of erythrocytes was investigated using a scanning electron microscope (SEM). […] Hematocrit concentration of the erythrocytes in the modification solution was 2%, the modification lasting 1 h at 37 °C. After modification, the erythrocytes where fixed for 48 h in a 2.5% solution of glutaraldehyde. After that, the preparations were washed in phosphate buffer for 20 min, and then the material was dehydrated in a rising series of acetone concentrations (30%, 50%, 60%, 70%, 80%, 90%, and 100%). Each sample was washed for 15 min in an appropriate concentration, the material remaining in pure acetone for 30 min. Next, the erythrocytes were dried for 12 h at room temperature. Erythrocytes thus prepared were deposited on object stages and subjected to x-ray microanalysis by means of an x-ray analyzer, Bruker AXS Quantax, collaborating with the ESPRIT ver. 1.8.2. software. Next, the samples were coated with gold using a Scancoat 6 (Edwards, London) sprinkler. The material ultrastructure was analyzed using a scanning microscope (EVO LS15 ZEISS) with an SE1 detector, under high vacuum and accelerating voltage, acceleration voltage (EHT) = 20 kV. Individual forms of erythrocyte cells were ascribed morphological indices according to the Bessis scale, which for stomatocytes assume negative values from −1 to −4, and for echinocytes from 1 to 4.

[7] = test system: MCF-7, HuH-7, HepG2, Caco-2, and HUVEC; parameters: method as in doi:10.3136/fstr.17.515; conditions: cited from earlier work
renal cell carcinoma = test system: renal cell carcinoma; parameters: method as in PMID 29742507; conditions: cited from earlier work
[8] = test system: MCF-7 breast cancer cells; conditions: cited from earlier work
RAW 264.7 cells = test system: RAW 264.7 cells; parameters: method as in doi:10.1007/s10068-014-0279-x; conditions: 100 to 200 µg/mL; cited from earlier work
[9] = test system: HER2 (breast cancer), GBM (glioblastoma), and human monocytic leukemia; parameters: method as in PMID 15080622, PMID 24312561, PMID 28867321; conditions: cancer cells, interrupting the G2-M phase; cited from earlier work
[10] = parameters: method as in doi:10.1007/s10068-014-0279-x; conditions: cited from earlier work
macrophages = test system: macrophages; parameters: method as in doi:10.1007/s10068-014-0279-x; conditions: cited from earlier work
HL-60 cells = test system: HL-60 cells; parameters: method as in PMID 17360708; conditions: by the accumulation of peroxides; cited from earlier work
[11] = test system: human peripheral blood mononuclear cells; parameters: method as in PMID 17360708; conditions: cited from earlier work

| SMILES | intracellular ROS level compared with control cells (HMEC-1 cells [4]; HMEC-1, 24 h, 50-100 µM) | intracellular ROS level compared with control cells (HMEC-1 cells [4]; HMEC-1, 48 h, 50-100 µM) | inhibitory activity on AAPH-induced intracellular ROS (HMEC-1 cells [1]) | morphological index of induced echinocytes (Bessis scale) (erythrocytes (RBCs) [6]) | intracellular ROS level in comparison with control AAPH-oxidized cells (HMEC-1 cells [1]) | cytotoxicity (HMEC-1 cells [3]) | also measured |
| --- | --- | --- | --- | --- | --- | --- | --- |
| CC(C)(N=NC(C)(C)C(=N)N)C(=N)N.Cl.Cl [AAPH, 2,2′-azobis(2-amidinopropane) dihydrochloride, reference compound] | – | – | – | – | – | – | increase in the ROS level (HMEC-1 cells [1]; HMEC-1, 24 h incubation with AAPH (7.5 mM), 37 °C): about 60% |
| Oc1cc(O)c2cc(O)c(-c3ccc(O)c(O)c3)[o+]c2c1 [C, Cyanidin] | significant decrease | decreased | does not cause any inhibitory activity | +4 | – | – | viability at 48 h, 100 µM [2]: 65 to 80%; viability of endothelial cells compared with the control (HMEC-1 cells [3]): decreased the viability; antioxidant activity compared with CG, CA, and CGA (erythrocytes (RBCs) [5]): did not observe any significant differences; intracellular ROS levels [7]: decreased; percentage of apoptotic cells (renal cell carcinoma; 48 h at 0, 25, 50, and 100 μM): gradually increased; cell cycle arrest (renal cell carcinoma; independently of the concentration): induced cell cycle arrest; cell proliferation and apoptosis [8]: inhibition of cell proliferation and increased apoptosis |
| Oc1cc(O)c2cc(OC3OCC(O)C(O)C3O)c(-c3ccc(O)c(O)c3)[o+]c2c1 (stereo not drawn) [CA, cyanidin-3-O-arabinoside] | significant decrease | decreased | – | +2 | significant decrease | – | viability at 48 h, 100 µM [2]: 60 to 85%; viability of endothelial cells compared with the control (HMEC-1 cells [3]): decreased the viability; level of RBCs' protection relative to CR and CDG (erythrocytes (RBCs) [5]): better protection |
| OCC1OC(Oc2cc3c(OC4OC(CO)C(O)C(O)C4O)cc(O)cc3[o+]c2-c2ccc(O)c(O)c2)C(O)C(O)C1O (stereo not drawn) [CDG, cyanidin-3-5-O-diglucoside] | significant decrease | decreased | strong inhibitory action | +1 | significant decrease | no cytotoxicity | protective effect against AAPH-induced oxidative stress (HMEC-1 cells [1]; HMEC-1, 100 µM): protective effect |
| OCC1OC(Oc2cc3c(O)cc(O)cc3[o+]c2-c2ccc(O)c(O)c2)C(O)C(O)C1O (stereo not drawn) [CG, cyanidin-3-O-glucoside] | significant decrease | – | – | – | significant decrease | no cytotoxicity | intracellular ROS level compared with control cells (HMEC-1 cells [4]; HMEC-1, 48 h, 100 µM): no significant difference; level of RBCs' protection relative to CR and CDG (erythrocytes (RBCs) [5]): better protection; cell viability compared with control cells (RAW 264.7 cells): significantly decreased; intracellular ROS levels [7]: did not; cytotoxic effect (apoptosis) [9]: inducing apoptosis; nitrite scavenging activity compared with CR [10]: higher; protective effect against H2O2-induced cytotoxicity compared with CR (macrophages): stronger protective effect |
| OCC1OC(Oc2cc3c(O)cc(O)cc3[o+]c2-c2ccc(O)c(O)c2)C(O)C(O)C1O (stereo not drawn) [CGA, cyanidin-3-O-galactoside] | – | decreased | – | – | – | – | – |
| CC1OC(OCC2OC(Oc3cc4c(O)cc(O)cc4[o+]c3-c3ccc(O)c(O)c3)C(O)C(O)C2O)C(O)C(O)C1O (stereo not drawn) [CR, cyanidin-3-O-rutinoside] | did not differ | no significant difference | does not cause any inhibitory activity | +1 | – | no cytotoxicity | cell viability compared with control cells (RAW 264.7 cells): significantly decreased; apoptosis (HL-60 cells): induce apoptosis; toxicity [11]: relatively low toxicity |
